Here are results for one compound from PMC6783499, “Heteroglycoclusters With Dual Nanomolar Affinities for the Lectins LecA and LecB From Pseudomonas aeruginosa” (Frontiers in Chemistry, 2019).

The target in assay [1] is T1, LecB (Pseudomonas aeruginosa, UniProt Q9HYN5).
T1 construct: made in house; host or cells: Escherichia coli BL21(DE3)
The experiment in a line: biochemical. Type of assay: binding. The protocol:
(§1) The resulting hGCs were tested in solution with lectins by Isothermal Titration Calorimetry (Table 1) and their binding properties were compared with homoclusters 15–20 (Berthet et al., [2013]; Thomas et al., [2015b]) displaying either 4 and 16 βGal or αFuc units attached with an oxime or a triazole linker (Figure 3). […] Experiments were performed in direct injection mode (i.e., ligand in syringe and protein in cell) to minimize aggregation problems.
(§2) All chemical reagents were purchased from Aldrich (Saint Quentin Fallavier, France) or Acros (Noisy-Le-Grand, France). All protected amino acids and Fmoc-Gly-Sasrin® resin was obtained from Advanced ChemTech Europe (Brussels, Belgium). For peptides and glycopeptides, analytical RP-HPLC was performed on Waters system equipped with a Waters 2695 separations module and a Waters 2487 Dual Absorbance UV/Visible Detector. Analysis was carried out at 1.0 mL/min (EC 125/3 nucleosil 300-5 C18) with UV monitoring at 214 nm and 250 nm using a linear A–B gradient (buffer A: 0.09% CF3CO2H in water; buffer B: 0.09% CF3CO2H in 90% acetonitrile). Purifications were carried out at 22.0 mL/min (VP 250/21 nucleosil 100-7 C18) with UV monitoring at 214 nm and 250 nm using a linear A–B gradient. HRMS and ESI-MS and HRMS spectra of peptides and glycopeptides were measured on an Esquire 3000 spectrometer from Bruker. Lectins LecA and LecB were produced in recombinant form in Escherichia coli BL21(DE3) as described previously (Mitchell et al., [2005]; Blanchard et al., [2008]).
(§3) Other compounds were assayed with a VP-ITC isothermal titration calorimeter (Microcal). The experiments were carried out at 25°C. All glycocompounds and lectins LecB and LecA were dissolved in the same buffer composed of 20 mM Tris with 100 mM NaCl and 0.1 mM CaCl2 at pH 7.5. For PEAQ-ITC, the lectins were placed in the microcalorimeter cell (200 μL) at concentrations varying from 35 to 70 μM. […] For VP-ITC, the microcalorimeter cell (1.447 mL) contained the lectins with concentrations between 30 and 100 μM. A total of 30 injections of 10 μL were performed intervals of 5 min while stirring at 310 rpm with glycoclusters concentrations varying from 0.40 to 0.150 μM. The experimental data were fitted to a theoretical titration curve using the Microcal PEAQ-ITC analysis software, with ΔH (enthalpy change), Ka (association constant), and N (number of binding sites per monomer) as adjustable parameters. Dissociation constant (Kd), free energy change (ΔG), and entropy contributions (TΔS) were derived from the previous ones. Two or three independent titrations were performed for each ligand tested.

For assay [2], the target named is T2, LecA (Pseudomonas aeruginosa, UniProt Q05097).
T2 construct: made in house; host or cells: Escherichia coli BL21(DE3)
Nature of the assay: biochemical. Type of assay: binding. As to the method: as §1, §2
as §3, with “A total of 30 injections of 10 μL were performed intervals of 5 min while stirring at 310 rpm with glycoclusters concentrations varying from 0.40 to 0.150 μM.” left out

Setting [3] is: ITC, 25°C, per mole of glycocluster.
Where [4] appears, read: LecA, ITC, 25°C, per mole of glycocluster.

T1 sequence (Q9HYN5 entry or part of it): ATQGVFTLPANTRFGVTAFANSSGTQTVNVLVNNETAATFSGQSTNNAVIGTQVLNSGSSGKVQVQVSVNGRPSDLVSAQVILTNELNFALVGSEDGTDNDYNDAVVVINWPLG
T2 sequence (Q05097 whole entry): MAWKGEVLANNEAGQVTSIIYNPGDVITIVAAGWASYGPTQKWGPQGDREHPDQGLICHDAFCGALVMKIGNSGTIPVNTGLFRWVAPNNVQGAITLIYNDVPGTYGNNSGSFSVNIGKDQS

As for `C[C@@H]1NC(=O)[C@H](CCCCNC(=O)/C=N/O[C@@H]2O[C@@H](C)[C@@H](O)[C@@H](O)[C@@H]2O)NC(=O)CNC(=O)[C@@H]2CCCN2C(=O)[C@H](CCCCNC(=O)/C=N/O[C@@H]2O[C@@H](C)[C@@H](O)[C@@H](O)[C@@H]2O)NC(=O)[C@H](CCCCNC(=O)CO/N=C/C(=O)NCCCC[C@@H]2NC(=O)CNC(=O)[C@@H]3CCCN3C(=O)[C@H](CCCCNC(=O)/C=N/OCC(=O)NCCCC[C@@H]3NC(=O)[C@H](CCCCNC(=O)/C=N/O[C@@H]4O[C@@H](C)[C@@H](O)[C@@H](O)[C@@H]4O)NC(=O)CNC(=O)[C@@H]4CCCN4C(=O)[C@H](CCCCNC(=O)/C=N/O[C@@H]4O[C@@H](C)[C@@H](O)[C@@H](O)[C@@H]4O)NC(=O)[C@H](C)NC(=O)[C@H](CCCCNC(=O)/C=N/O[C@@H]4O[C@@H](C)[C@@H](O)[C@@H](O)[C@@H]4O)NC(=O)CNC(=O)[C@@H]4CCCN4C(=O)[C@H](CCCCNC(=O)/C=N/O[C@@H]4O[C@@H](C)[C@@H](O)[C@@H](O)[C@@H]4O)NC3=O)NC(=O)[C@H](CCCCN)NC(=O)[C@H](CCCCNC(=O)CO/N=C/C(=O)NCCCC[C@@H]3NC(=O)[C@H](CCCCn4cc(CO[C@@H]5O[C@H](CO)[C@H](O)[C@H](O)[C@H]5O)nn4)NC(=O)CNC(=O)[C@@H]4CCCN4C(=O)[C@H](CCCCn4cc(CO[C@@H]5O[C@H](CO)[C@H](O)[C@H](O)[C@H]5O)nn4)NC(=O)[C@H](C)NC(=O)[C@H](CCCCn4cc(CO[C@@H]5O[C@H](CO)[C@H](O)[C@H](O)[C@H]5O)nn4)NC(=O)CNC(=O)[C@@H]4CCCN4C(=O)[C@H](CCCCn4cc(CO[C@@H]5O[C@H](CO)[C@H](O)[C@H](O)[C@H]5O)nn4)NC3=O)NC(=O)CNC(=O)[C@@H]3CCCN3C(=O)[C@H](CCCCNC(=O)CO/N=C/C(=O)NCCCC[C@@H]3NC(=O)[C@H](CCCCn4cc(CO[C@@H]5O[C@H](CO)[C@H](O)[C@H](O)[C@H]5O)nn4)NC(=O)CNC(=O)[C@@H]4CCCN4C(=O)[C@H](CCCCn4cc(CO[C@@H]5O[C@H](CO)[C@H](O)[C@H](O)[C@H]5O)nn4)NC(=O)[C@H](C)NC(=O)[C@H](CCCCn4cc(CO[C@@H]5O[C@H](CO)[C@H](O)[C@H](O)[C@H]5O)nn4)NC(=O)CNC(=O)[C@@H]4CCCN4C(=O)[C@H](CCCCn4cc(CO[C@@H]5O[C@H](CO)[C@H](O)[C@H](O)[C@H]5O)nn4)NC3=O)NC(=O)[C@H](C)NC2=O)NC(=O)[C@H](CCCCNC(=O)/C=N/O[C@@H]2O[C@@H](C)[C@@H](O)[C@@H](O)[C@@H]2O)NC(=O)CNC(=O)[C@@H]2CCCN2C(=O)[C@H](CCCCNC(=O)/C=N/O[C@@H]2O[C@@H](C)[C@@H](O)[C@@H](O)[C@@H]2O)NC1=O` [Compound 11], the “–ΔH (binding enthalpy)” value in assay [1] (ITC) is 50.7 kcal/mol; in assay [2] (LecA, ITC), 51.6 to 58.1 kcal/mol. The “n (stoichiometry, glycocluster molecules per lectin monomer)” value in assay [1] (ITC, 25°C, pH 7.5) is listed as 0.10; in assay [2] (LecA, ITC, 25°C, pH 7.5) it was 0.16. The “–ΔG” value in assay [1] (setting [3]) turned out to be 9.61 kcal/mol; in assay [2] (setting [4]) it was 10.2 kcal/mol. The “–ΔH” value in assay [1] (setting [3]) was 50.69 ± 1.4 kcal/mol; in assay [2] (setting [4]) it was 55.59 ± 0.48 kcal/mol. Moreover, the “−TΔS” value in assay [1] (setting [3]) turned out to be 41.09 kcal/mol; in assay [2] (setting [4]), 45.39 kcal/mol. Besides, the Kd (usually a measure of binding affinity in units of concentration) in assay [1] (Kd, ITC, 25°C, 20 mM Tris, 100 mM NaCl, 0.1 mM CaCl2, pH 7.5, ligand in syringe) turned out to be 92 ± 14 nM; in assay [2], 34 ± 7 nM. Further, in assay [1] (abstract), the “binding to LecB in words” value was “maintain their binding potency”. In addition, the “α (relative potency compared to the monovalent compound)” value was 4.7 in assay [1] (relative to αFuc-OMe) and 4,412 in assay [2] (LecA, relative to βGal-OMe). Moreover, in assay [2] (LecA, abstract), the “binding to LecA in words” value is listed as “maintain their binding potency”. Moreover, the “β (relative potency per sugar unit)” value in assay [2] (LecA, relative to βGal-OMe) is 551.
